According to patent publication US8710198B2, “Caprazene as a novel compound and derivatives thereof, and caprazol as a novel compound and derivatives thereof” (Meiji Seika Pharma Co., Ltd., priority 2003, dated 2014):

Key:
Format in all cases: cell-based
[1] = system: Staphylococcus aureus FDA209P; experiment: Minimum growth inhibitory concentration on agar culture medium by serial dilution method (Japanese Society of Chemotherapy)
Protocol: (§1) Minimum growth inhibitory concentrations (mcg/ml) of caprazene-1′″-amide derivatives of the formula (II) against some of microorganisms were measured on an agar culture medium by a serial dilution method according to the standard method as provided by Japanese Society of Chemotherapy. For the cultivation of Mycobacterium smegmatis (one of […]), however, there was used an agar culture medium with the addition of 1% glycerine (the same applies to in the following tests).
(§2) Minimum growth inhibitory concentrations (mcg/ml) of some of the caprazene-1′″-ester derivative of the formula (III) against some of microorganisms were measured on an agar culture medium by a serial dilution method according to the standard method as provided by Japanese Society of Chemotherapy.
(§3) Minimum growth inhibitory concentrations (mcg/ml) of some of the caprazol-1′″-amide derivative of the formula (V) against a variety of microorganisms were measured on an agar medium by a serial dilution method according to the standard method as provided by Japanese Society of Chemotherapy.
(§4) Minimum growth inhibitory concentrations (mcg/ml) of some of the caprazol-1′″-amide-3′″-ester derivative of the formula (VI) against a variety of microorganisms were measured on an agar medium by a serial dilution method according to the standard method as provided by Japanese Society of Chemotherapy.
(§5) Minimum growth inhibitory concentrations (mcg/ml) of some of the caprazol-3′″-ester derivative or caprazol-1′″-ester-3′″-ester derivative of the formula (VII) against a variety of microorganisms were measured on an agar medium by a serial dilution method according to the standard method as provided by Japanese Society of Chemotherapy.
(§6) Minimum growth inhibitory concentrations (mcg/ml) of some of the derivative of the formula (VIII) against a variety of microorganisms were measured on an agar medium by a serial dilution method according to the standard method as provided by Japanese Society of Chemotherapy.

Micrococcus luteus FDA16 = experiment: as above
Protocol: as §1, §2, §3, §4, §5, §6

[2] = system: Mycobacterium smegmatis ATCC607; experiment: Minimum growth inhibitory concentration on agar culture medium with 1% glycerine by serial dilution method; details: agar culture medium with the addition of 1% glycerine
Protocol: as §1, §2, §3, §4, §5

CCCCCCCCCCCCCNC(=O)C1=CCN(C)C(C(OC2OC(CN)C(O)C2O)C2OC(n3ccc(=O)[nH]c3=O)C(O)C2O)C(=O)N1C (stereo not drawn) [Compound II-H]
Minimum growth inhibitory concentration (mcg/ml) against bacteria Staphylococcus aureus FDA209P [1]: 3.13 µg/mL
Minimum growth inhibitory concentration (mcg/ml) against bacteria Micrococcus luteus FDA16 (Micrococcus luteus FDA16): 0.78 µg/mL
Minimum growth inhibitory concentration (mcg/ml) against bacteria Mycobacterium smegmatis ATCC607 [2]: <0.20 µg/mL

CCCCCCCCCCCCCCNC(=O)C1=CCN(C)C(C(OC2OC(CNC(=O)OC(C)(C)C)C(O)C2O)C2OC(n3ccc(=O)[nH]c3=O)C(O)C2O)C(=O)N1C (stereo not drawn) [Compound II-I-N-Boc]
Minimum growth inhibitory concentration (mcg/ml) against bacteria Staphylococcus aureus FDA209P [1]: 12.5 µg/mL
Minimum growth inhibitory concentration (mcg/ml) against bacteria Micrococcus luteus FDA16 (Micrococcus luteus FDA16): 12.5 µg/mL
Minimum growth inhibitory concentration (mcg/ml) against bacteria Mycobacterium smegmatis ATCC607 [2]: 25 µg/mL

CCCCCCCCCCCCCCNC(=O)C1=CCN(C)C(C(OC2OC(CN)C(O)C2O)C2OC(n3ccc(=O)[nH]c3=O)C(O)C2O)C(=O)N1C (stereo not drawn) [Compound II-I]
Minimum growth inhibitory concentration (mcg/ml) against bacteria Staphylococcus aureus FDA209P [1]: 3.13 µg/mL
Minimum growth inhibitory concentration (mcg/ml) against bacteria Micrococcus luteus FDA16 (Micrococcus luteus FDA16): 0.78 µg/mL
Minimum growth inhibitory concentration (mcg/ml) against bacteria Mycobacterium smegmatis ATCC607 [2]: 0.78 µg/mL

CCCCCCCCCCCCCCCNC(=O)C1=CCN(C)C(C(OC2OC(CNC(=O)OC(C)(C)C)C(O)C2O)C2OC(n3ccc(=O)[nH]c3=O)C(O)C2O)C(=O)N1C (stereo not drawn) [Compound II-J-N-Boc]
Minimum growth inhibitory concentration (mcg/ml) against bacteria Staphylococcus aureus FDA209P [1]: 12.5 µg/mL
Minimum growth inhibitory concentration (mcg/ml) against bacteria Micrococcus luteus FDA16 (Micrococcus luteus FDA16): 12.5 µg/mL
Minimum growth inhibitory concentration (mcg/ml) against bacteria Mycobacterium smegmatis ATCC607 [2]: 25 µg/mL

CCCCCCCCCCCCCCCNC(=O)C1=CCN(C)C(C(OC2OC(CN)C(O)C2O)C2OC(n3ccc(=O)[nH]c3=O)C(O)C2O)C(=O)N1C (stereo not drawn) [Compound II-J]
Minimum growth inhibitory concentration (mcg/ml) against bacteria Staphylococcus aureus FDA209P [1]: 1.56 µg/mL
Minimum growth inhibitory concentration (mcg/ml) against bacteria Micrococcus luteus FDA16 (Micrococcus luteus FDA16): 0.78 µg/mL
Minimum growth inhibitory concentration (mcg/ml) against bacteria Mycobacterium smegmatis ATCC607 [2]: 1.56 µg/mL

CCCCCCCCCCCCCCCCNC(=O)C1=CCN(C)C(C(OC2OC(CN)C(O)C2O)C2OC(n3ccc(=O)[nH]c3=O)C(O)C2O)C(=O)N1C (stereo not drawn) [Compound II-K]
Minimum growth inhibitory concentration (mcg/ml) against bacteria Staphylococcus aureus FDA209P [1]: 3.13 µg/mL
Minimum growth inhibitory concentration (mcg/ml) against bacteria Micrococcus luteus FDA16 (Micrococcus luteus FDA16): 0.78 µg/mL
Minimum growth inhibitory concentration (mcg/ml) against bacteria Mycobacterium smegmatis ATCC607 [2]: 3.13 µg/mL

CCCCCCCCCCCCCCCCCNC(=O)C1=CCN(C)C(C(OC2OC(CN)C(O)C2O)C2OC(n3ccc(=O)[nH]c3=O)C(O)C2O)C(=O)N1C (stereo not drawn) [Compound II-L]
Minimum growth inhibitory concentration (mcg/ml) against bacteria Staphylococcus aureus FDA209P [1]: 1.56 µg/mL
Minimum growth inhibitory concentration (mcg/ml) against bacteria Micrococcus luteus FDA16 (Micrococcus luteus FDA16): 1.56 µg/mL
Minimum growth inhibitory concentration (mcg/ml) against bacteria Mycobacterium smegmatis ATCC607 [2]: 3.13 µg/mL

CCCCCCCCCCCCCCCCCCNC(=O)C1=CCN(C)C(C(OC2OC(CN)C(O)C2O)C2OC(n3ccc(=O)[nH]c3=O)C(O)C2O)C(=O)N1C (stereo not drawn) [Compound II-M]
Minimum growth inhibitory concentration (mcg/ml) against bacteria Staphylococcus aureus FDA209P [1]: 6.25 µg/mL
Minimum growth inhibitory concentration (mcg/ml) against bacteria Micrococcus luteus FDA16 (Micrococcus luteus FDA16): 0.78 µg/mL
Minimum growth inhibitory concentration (mcg/ml) against bacteria Mycobacterium smegmatis ATCC607 [2]: 3.13 µg/mL

CCCCCCCCCCCCCCCCCCCNC(=O)C1=CCN(C)C(C(OC2OC(CN)C(O)C2O)C2OC(n3ccc(=O)[nH]c3=O)C(O)C2O)C(=O)N1C (stereo not drawn) [Compound II-N]
Minimum growth inhibitory concentration (mcg/ml) against bacteria Staphylococcus aureus FDA209P [1]: 6.25 µg/mL
Minimum growth inhibitory concentration (mcg/ml) against bacteria Micrococcus luteus FDA16 (Micrococcus luteus FDA16): 0.78 µg/mL
Minimum growth inhibitory concentration (mcg/ml) against bacteria Mycobacterium smegmatis ATCC607 [2]: 50 µg/mL

CCCCCCCCCCCCCCCCCCCCNC(=O)C1=CCN(C)C(C(OC2OC(CN)C(O)C2O)C2OC(n3ccc(=O)[nH]c3=O)C(O)C2O)C(=O)N1C (stereo not drawn) [Compound II-O]
Minimum growth inhibitory concentration (mcg/ml) against bacteria Staphylococcus aureus FDA209P [1]: 3.13 µg/mL
Minimum growth inhibitory concentration (mcg/ml) against bacteria Micrococcus luteus FDA16 (Micrococcus luteus FDA16): 3.13 µg/mL
Minimum growth inhibitory concentration (mcg/ml) against bacteria Mycobacterium smegmatis ATCC607 [2]: 25 µg/mL

CCCCCCCCCCCCCCCCCCCCCNC(=O)C1=CCN(C)C(C(OC2OC(CN)C(O)C2O)C2OC(n3ccc(=O)[nH]c3=O)C(O)C2O)C(=O)N1C (stereo not drawn) [Compound II-P]
Minimum growth inhibitory concentration (mcg/ml) against bacteria Staphylococcus aureus FDA209P [1]: 6.25 µg/mL
Minimum growth inhibitory concentration (mcg/ml) against bacteria Micrococcus luteus FDA16 (Micrococcus luteus FDA16): 3.13 µg/mL
Minimum growth inhibitory concentration (mcg/ml) against bacteria Mycobacterium smegmatis ATCC607 [2]: 50 µg/mL

CN1C(=O)C(C(OC2OC(CN)C(O)C2O)C2OC(n3ccc(=O)[nH]c3=O)C(O)C2O)N(C)CC=C1C(=O)NC1CCCCCCCCCCC1 (stereo not drawn) [Compound II-Q]
Minimum growth inhibitory concentration (mcg/ml) against bacteria Staphylococcus aureus FDA209P [1]: 100 µg/mL
Minimum growth inhibitory concentration (mcg/ml) against bacteria Micrococcus luteus FDA16 (Micrococcus luteus FDA16): 0.20 µg/mL
Minimum growth inhibitory concentration (mcg/ml) against bacteria Mycobacterium smegmatis ATCC607 [2]: 3.13 µg/mL

CCCCCCCCC=CCCCCCCCCNC(=O)C1=CCN(C)C(C(OC2OC(CN)C(O)C2O)C2OC(n3ccc(=O)[nH]c3=O)C(O)C2O)C(=O)N1C (stereo not drawn) [Compound II-R]
Minimum growth inhibitory concentration (mcg/ml) against bacteria Staphylococcus aureus FDA209P [1]: 1.56 µg/mL
Minimum growth inhibitory concentration (mcg/ml) against bacteria Micrococcus luteus FDA16 (Micrococcus luteus FDA16): 1.56 µg/mL
Minimum growth inhibitory concentration (mcg/ml) against bacteria Mycobacterium smegmatis ATCC607 [2]: 1.56 µg/mL

CCCCCCCCCCOC(=O)C1=CCN(C)C(C(OC2OC(CN)C(O)C2O)C2OC(n3ccc(=O)[nH]c3=O)C(O)C2O)C(=O)N1C (stereo not drawn) [Compound III-AA]
Minimum growth inhibitory concentration (mcg/ml) against bacteria Staphylococcus aureus FDA209P [1]: 12.5 µg/mL
Minimum growth inhibitory concentration (mcg/ml) against bacteria Micrococcus luteus FDA16 (Micrococcus luteus FDA16): 1.56 µg/mL
Minimum growth inhibitory concentration (mcg/ml) against bacteria Mycobacterium smegmatis ATCC607 [2]: 12.5 µg/mL

CCCCCCCCCCCCCOC(=O)C1=CCN(C)C(C(OC2OC(CN)C(O)C2O)C2OC(n3ccc(=O)[nH]c3=O)C(O)C2O)C(=O)N1C (stereo not drawn) [Compound III-BB]
Minimum growth inhibitory concentration (mcg/ml) against bacteria Staphylococcus aureus FDA209P [1]: 3.13 µg/mL
Minimum growth inhibitory concentration (mcg/ml) against bacteria Micrococcus luteus FDA16 (Micrococcus luteus FDA16): 3.13 µg/mL
Minimum growth inhibitory concentration (mcg/ml) against bacteria Mycobacterium smegmatis ATCC607 [2]: 12.5 µg/mL

CCCCCCCCCCCCCCCCCCOC(=O)C1=CCN(C)C(C(OC2OC(CN)C(O)C2O)C2OC(n3ccc(=O)[nH]c3=O)C(O)C2O)C(=O)N1C (stereo not drawn) [Compound III-CC]
Minimum growth inhibitory concentration (mcg/ml) against bacteria Staphylococcus aureus FDA209P [1]: 12.5 µg/mL
Minimum growth inhibitory concentration (mcg/ml) against bacteria Micrococcus luteus FDA16 (Micrococcus luteus FDA16): 6.25 µg/mL
Minimum growth inhibitory concentration (mcg/ml) against bacteria Mycobacterium smegmatis ATCC607 [2]: >100 µg/mL

CCCCCCCCCC=CCOC(=O)C1=CCN(C)C(C(OC2OC(CN)C(O)C2O)C2OC(n3ccc(=O)[nH]c3=O)C(O)C2O)C(=O)N1C (stereo not drawn) [Compound III-EE]
Minimum growth inhibitory concentration (mcg/ml) against bacteria Staphylococcus aureus FDA209P [1]: 6.25 µg/mL
Minimum growth inhibitory concentration (mcg/ml) against bacteria Micrococcus luteus FDA16 (Micrococcus luteus FDA16): 1.56 µg/mL
Minimum growth inhibitory concentration (mcg/ml) against bacteria Mycobacterium smegmatis ATCC607 [2]: 12.5 µg/mL

CCCCCCC#CCCOC(=O)C1=CCN(C)C(C(OC2OC(CN)C(O)C2O)C2OC(n3ccc(=O)[nH]c3=O)C(O)C2O)C(=O)N1C (stereo not drawn) [Compound III-GG]
Minimum growth inhibitory concentration (mcg/ml) against bacteria Staphylococcus aureus FDA209P [1]: 50 µg/mL
Minimum growth inhibitory concentration (mcg/ml) against bacteria Micrococcus luteus FDA16 (Micrococcus luteus FDA16): 6.25 µg/mL
Minimum growth inhibitory concentration (mcg/ml) against bacteria Mycobacterium smegmatis ATCC607 [2]: 25 µg/mL

CCCCCCNC(=O)C1C(O)CN(C)C(C(OC2OC(CN)C(O)C2O)C2OC(n3ccc(=O)[nH]c3=O)C(O)C2O)C(=O)N1C (stereo not drawn) [Compound V-A]
Minimum growth inhibitory concentration (mcg/ml) against bacteria Staphylococcus aureus FDA209P [1]: 50 µg/mL
Minimum growth inhibitory concentration (mcg/ml) against bacteria Micrococcus luteus FDA16 (Micrococcus luteus FDA16): 50 µg/mL
Minimum growth inhibitory concentration (mcg/ml) against bacteria Mycobacterium smegmatis ATCC607 [2]: 12.5 µg/mL

CCCCCCCCNC(=O)C1C(O)CN(C)C(C(OC2OC(CN)C(O)C2O)C2OC(n3ccc(=O)[nH]c3=O)C(O)C2O)C(=O)N1C (stereo not drawn) [Compound V-C]
Minimum growth inhibitory concentration (mcg/ml) against bacteria Staphylococcus aureus FDA209P [1]: 25 µg/mL
Minimum growth inhibitory concentration (mcg/ml) against bacteria Micrococcus luteus FDA16 (Micrococcus luteus FDA16): 25 µg/mL
Minimum growth inhibitory concentration (mcg/ml) against bacteria Mycobacterium smegmatis ATCC607 [2]: 6.25 µg/mL

CCCCCCCCCCNC(=O)C1C(O)CN(C)C(C(OC2OC(CN)C(O)C2O)C2OC(n3ccc(=O)[nH]c3=O)C(O)C2O)C(=O)N1C (stereo not drawn) [Compound V-E]
Minimum growth inhibitory concentration (mcg/ml) against bacteria Staphylococcus aureus FDA209P [1]: 25 µg/mL
Minimum growth inhibitory concentration (mcg/ml) against bacteria Micrococcus luteus FDA16 (Micrococcus luteus FDA16): 25 µg/mL
Minimum growth inhibitory concentration (mcg/ml) against bacteria Mycobacterium smegmatis ATCC607 [2]: 6.25 µg/mL
